Test results published in ChEMBL document CHEMBL1157316, “Resin glycosides from the flowers of Ipomoea murucoides” (2006).
≈ marks a conversion by molar mass, not a printed value.

Tested on: HEp-2
Experiment: Cytotoxicity against human Hep2 cells after 72 hrs by SRB method
Type: functional
Settings: HEp-2, 72 h, read-out: ED50 (the source's name)

Structure (SMILES)	EC50 [µg/mL]
CCCCC[C@H]1CCCCCCCCCC(=O)O[C@H]2[C@H](O[C@H]3[C@H](O1)O[C@H](C)[C@H](O)[C@@H]3O)O[C@@H](C)[C@H](O[C@@H]1O[C@@H](C)[C@H](O[C@@H]3O[C@@H](C)[C@H](OC(=O)[C@@H](C)CC)[C@@H](O)[C@H]3O)[C@@H](O[C@@H]3O[C@@H](C)[C@H](O)[C@@H](O)[C@H]3O)[C@H]1OC(=O)[C@@H](C)CC)[C@H]2O [MURUCOIDIN III]	> 20
CCCCC[C@H]1CCCCCCCCCC(=O)O[C@H]2[C@H](O[C@H]3[C@H](O1)O[C@H](C)[C@H](O)[C@@H]3O)O[C@@H](C)[C@H](O[C@@H]1O[C@@H](C)[C@H](O[C@@H]3O[C@@H](C)[C@H](OC(=O)C(C)C)[C@@H](O)[C@H]3O)[C@@H](O[C@@H]3O[C@@H](C)[C@H](O)[C@@H](O)[C@H]3O)[C@H]1OC(=O)[C@@H](C)CC)[C@H]2O [MURUCOIDIN II]	> 20
CCCCC[C@H]1CCCCCCCCCC(=O)O[C@H]2[C@H](O[C@H]3[C@H](O1)O[C@H](C)[C@H](O)[C@@H]3O)O[C@@H](C)[C@H](O[C@@H]1O[C@@H](C)[C@H](O[C@@H]3O[C@@H](C)[C@H](OC(=O)[C@@H](C)CC)[C@@H](O)[C@H]3O)[C@@H](O[C@@H]3O[C@H](CO)[C@@H](O)[C@H](O)[C@H]3O)[C@H]1OC(=O)[C@@H](C)CC)[C@H]2O [MURUCOIDIN IV]	4 (≈ 3.42 µM)
CCCCC[C@H]1CCCCCCCCCC(=O)O[C@H]2[C@H](O[C@H]3[C@H](O1)O[C@H](C)[C@H](O)[C@@H]3O)O[C@@H](C)[C@H](O[C@@H]1O[C@@H](C)[C@H](O[C@@H]3O[C@@H](C)[C@H](O)[C@@H](O)[C@H]3O)[C@@H](O[C@@H]3O[C@@H](C)[C@H](O)[C@@H](O)[C@H]3O)[C@H]1OC(=O)[C@@H](C)CC)[C@H]2O [MURUCOIDIN I]	> 20
CCCCC[C@H]1CCCCCCCCCC(=O)O[C@H]2[C@@H](O)[C@H](O[C@H]3[C@H](O1)O[C@H](C)[C@H](O)[C@@H]3O)O[C@@H](C)[C@@H]2O[C@@H]1O[C@@H](C)[C@H](O[C@@H]2O[C@@H](C)[C@H](OC(=O)[C@@H](C)CC)[C@@H](O)[C@H]2O)[C@@H](O[C@@H]2O[C@H](CO)[C@@H](O)[C@H](O)[C@H]2O)[C@H]1OC(=O)[C@@H](C)CC [MURUCOIDIN V]	> 20
CCCCC[C@H]1CCCCCCCCCC(=O)O[C@H]2[C@@H](O)[C@H](O[C@H]3[C@H](O1)O[C@H](C)[C@H](O)[C@@H]3O)O[C@@H](C)[C@@H]2O[C@@H]1O[C@@H](C)[C@H](O[C@@H]2O[C@@H](C)[C@H](OC(=O)[C@@H](C)CC)[C@@H](O)[C@H]2O)[C@@H](O[C@@H]2O[C@@H](C)[C@H](O)[C@@H](O)[C@H]2O)[C@H]1OC(=O)[C@@H](C)CC [STOLONIFERIN I]	> 20
CC[C@]1(O)C[C@@H]2CN(CCc3c([nH]c4ccccc34)[C@@](C(=O)OC)(c3cc4c(cc3OC)N(C)[C@H]3[C@@](O)(C(=O)OC)[C@H](OC(C)=O)[C@]5(CC)C=CCN6CC[C@]43[C@@H]65)C2)C1 [VINBLASTINE]	0.001 (≈ 0.00123 µM)

Tested on: KB
Experiment: Cytotoxicity against human KB cells after 72 hrs by SRB method
Type: functional
Settings: read-out: ED50 (the source's name)

Structure (SMILES)	EC50 [µg/mL]
CC[C@]1(O)C[C@@H]2CN(CCc3c([nH]c4ccccc34)[C@@](C(=O)OC)(c3cc4c(cc3OC)N(C)[C@H]3[C@@](O)(C(=O)OC)[C@H](OC(C)=O)[C@]5(CC)C=CCN6CC[C@]43[C@@H]65)C2)C1 [VINBLASTINE]	0.05 (≈ 0.0617 µM)
